Reference: the NIST ThermoML archive (doi:10.1021/acs.jced.8b00438)

Assay: xn = mol fraction of the nth substance listed
Conditions: 100 kPa, Liquid; for viscosity: Falling or rolling sphere viscometry; for mass density: Vibrating tube method

C1CCC(C2CCCCC2)CC1 [1,1'-bicyclohexyl] + CCCCO
Conditions	mass density [kg/m3]	viscosity [mPa·s]
293.15 K, x1 = 0.1007	823.66	2.853
293.15 K, x1 = 0.2009	835.23	2.878
293.15 K, x1 = 0.3021	845.04	2.902
293.15 K, x1 = 0.4007	853.19	2.957
293.15 K, x1 = 0.5038	860.51	3.002
293.15 K, x1 = 0.5992	866.48	3.096
293.15 K, x1 = 0.7006	872.11	3.227
293.15 K, x1 = 0.7983	877.03	3.418
293.15 K, x1 = 0.8835	880.86	3.575
293.15 K, x1 = 1	886.05	4.003
298.15 K, x1 = 0.1007	819.86	2.507
298.15 K, x1 = 0.2009	831.42	2.527
298.15 K, x1 = 0.3021	841.24	2.548
298.15 K, x1 = 0.4007	849.39	2.603
298.15 K, x1 = 0.5038	856.73	2.648
298.15 K, x1 = 0.5992	862.71	2.734
298.15 K, x1 = 0.7006	868.37	2.851
298.15 K, x1 = 0.7983	873.33	3.02
298.15 K, x1 = 0.8835	877.19	3.158
298.15 K, x1 = 1	882.44	3.53
303.15 K, x1 = 0.1007	816.02	2.214
303.15 K, x1 = 0.2009	827.58	2.232
303.15 K, x1 = 0.3021	837.4	2.254
303.15 K, x1 = 0.4007	845.56	2.306
303.15 K, x1 = 0.5038	852.92	2.353
303.15 K, x1 = 0.5992	858.93	2.431
303.15 K, x1 = 0.7006	864.61	2.539
303.15 K, x1 = 0.7983	869.6	2.689
303.15 K, x1 = 0.8835	873.49	2.807
303.15 K, x1 = 1	878.84	3.137
308.15 K, x1 = 0.1007	812.14	1.963
308.15 K, x1 = 0.2009	823.71	1.982
308.15 K, x1 = 0.3021	833.53	2.006
308.15 K, x1 = 0.4007	841.7	2.054
308.15 K, x1 = 0.5038	849.08	2.102
308.15 K, x1 = 0.5992	855.12	2.179
308.15 K, x1 = 0.7006	860.84	2.273
308.15 K, x1 = 0.7983	865.87	2.411
308.15 K, x1 = 0.8835	869.8	2.513
308.15 K, x1 = 1	875.25	2.81
313.15 K, x1 = 0.1007	808.22	1.749
313.15 K, x1 = 0.2009	819.81	1.767
313.15 K, x1 = 0.3021	829.63	1.793
313.15 K, x1 = 0.4007	837.81	1.84
313.15 K, x1 = 0.5038	845.22	1.881
313.15 K, x1 = 0.5992	851.3	1.957
313.15 K, x1 = 0.7006	857.05	2.048
313.15 K, x1 = 0.7983	862.13	2.17
313.15 K, x1 = 0.8835	866.09	2.262
313.15 K, x1 = 1	871.66	2.532
318.15 K, x1 = 0.1007	804.27	1.563
318.15 K, x1 = 0.2009	815.86	1.582
318.15 K, x1 = 0.3021	825.69	1.61
318.15 K, x1 = 0.4007	833.9	1.656
318.15 K, x1 = 0.5038	841.34	1.704
318.15 K, x1 = 0.5992	847.45	1.769
318.15 K, x1 = 0.7006	853.25	1.853
318.15 K, x1 = 0.7983	858.37	1.966
318.15 K, x1 = 0.8835	862.38	2.047
318.15 K, x1 = 1	868.08	2.296
323.15 K, x1 = 0.1007	800.27	1.402
323.15 K, x1 = 0.2009	811.87	1.423
323.15 K, x1 = 0.3021	821.71	1.452
323.15 K, x1 = 0.4007	829.95	1.498
323.15 K, x1 = 0.5038	837.43	1.545
323.15 K, x1 = 0.5992	843.58	1.608
323.15 K, x1 = 0.7006	849.43	1.685
323.15 K, x1 = 0.7983	854.6	1.789
323.15 K, x1 = 0.8835	858.66	1.863
323.15 K, x1 = 1	864.5	2.092
328.15 K, x1 = 0.1007	796.21	1.263
328.15 K, x1 = 0.2009	807.82	1.285
328.15 K, x1 = 0.3021	817.69	1.315
328.15 K, x1 = 0.4007	825.97	1.36
328.15 K, x1 = 0.5038	833.49	1.407
328.15 K, x1 = 0.5992	839.69	1.466
328.15 K, x1 = 0.7006	845.59	1.54
328.15 K, x1 = 0.7983	850.82	1.635
328.15 K, x1 = 0.8835	854.93	1.702
328.15 K, x1 = 1	860.93	1.915
333.15 K, x1 = 0.1007	792.1	1.141
333.15 K, x1 = 0.2009	803.73	1.164
333.15 K, x1 = 0.3021	813.63	1.196
333.15 K, x1 = 0.4007	821.94	1.24
333.15 K, x1 = 0.5038	829.52	1.286
333.15 K, x1 = 0.5992	835.77	1.342
333.15 K, x1 = 0.7006	841.73	1.411
333.15 K, x1 = 0.7983	847.02	1.499
333.15 K, x1 = 0.8835	851.2	1.562
333.15 K, x1 = 1	857.35	1.762

CCCCCCCCCCCC [dodecane] + CCCCO
Conditions	mass density [kg/m3]	viscosity [mPa·s]
293.15 K, x1 = 0.1045	794.67	2.478
293.15 K, x1 = 0.2008	784.43	2.167
293.15 K, x1 = 0.3002	776.26	1.935
293.15 K, x1 = 0.3985	769.8	1.772
293.15 K, x1 = 0.4995	764.28	1.64
293.15 K, x1 = 0.5978	759.94	1.561
293.15 K, x1 = 0.7012	755.99	1.494
293.15 K, x1 = 0.7671	754.1	1.476
293.15 K, x1 = 0.8773	751.22	1.458
293.15 K, x1 = 1	748.83	1.491
298.15 K, x1 = 0.1045	790.86	2.183
298.15 K, x1 = 0.2008	780.62	1.919
298.15 K, x1 = 0.3002	772.45	1.722
298.15 K, x1 = 0.3985	765.97	1.588
298.15 K, x1 = 0.4995	760.49	1.477
298.15 K, x1 = 0.5978	756.17	1.414
298.15 K, x1 = 0.7012	752.24	1.359
298.15 K, x1 = 0.7671	750.38	1.345
298.15 K, x1 = 0.8773	747.52	1.331
298.15 K, x1 = 1	745.22	1.366
303.15 K, x1 = 0.1045	787.01	1.934
303.15 K, x1 = 0.2008	776.76	1.709
303.15 K, x1 = 0.3002	768.59	1.543
303.15 K, x1 = 0.3985	762.12	1.43
303.15 K, x1 = 0.4995	756.67	1.338
303.15 K, x1 = 0.5978	752.37	1.287
303.15 K, x1 = 0.7012	748.47	1.242
303.15 K, x1 = 0.7671	746.62	1.231
303.15 K, x1 = 0.8773	743.81	1.22
303.15 K, x1 = 1	741.59	1.257
308.15 K, x1 = 0.1045	783.13	1.721
308.15 K, x1 = 0.2008	772.86	1.529
308.15 K, x1 = 0.3002	764.7	1.388
308.15 K, x1 = 0.3985	758.24	1.295
308.15 K, x1 = 0.4995	752.82	1.218
308.15 K, x1 = 0.5978	748.54	1.177
308.15 K, x1 = 0.7012	744.67	1.141
308.15 K, x1 = 0.7671	742.85	1.132
308.15 K, x1 = 0.8773	740.07	1.124
308.15 K, x1 = 1	737.95	1.154
313.15 K, x1 = 0.1045	779.2	1.537
313.15 K, x1 = 0.2008	768.93	1.373
313.15 K, x1 = 0.3002	760.78	1.254
313.15 K, x1 = 0.3985	754.33	1.177
313.15 K, x1 = 0.4995	748.93	1.114
313.15 K, x1 = 0.5978	744.69	1.082
313.15 K, x1 = 0.7012	740.88	1.051
313.15 K, x1 = 0.7671	739.06	1.045
313.15 K, x1 = 0.8773	736.32	1.04
313.15 K, x1 = 1	734.31	1.076
318.15 K, x1 = 0.1045	775.23	1.379
318.15 K, x1 = 0.2008	764.95	1.239
318.15 K, x1 = 0.3002	756.81	1.138
318.15 K, x1 = 0.3985	750.39	1.075
318.15 K, x1 = 0.4995	745.02	1.022
318.15 K, x1 = 0.5978	740.81	0.997
318.15 K, x1 = 0.7012	737.02	0.972
318.15 K, x1 = 0.7671	735.24	0.968
318.15 K, x1 = 0.8773	732.55	0.964
318.15 K, x1 = 1	730.66	1.003
323.15 K, x1 = 0.1045	771.21	1.241
323.15 K, x1 = 0.2008	760.93	1.122
323.15 K, x1 = 0.3002	752.8	1.038
323.15 K, x1 = 0.3985	746.41	0.985
323.15 K, x1 = 0.4995	741.07	0.942
323.15 K, x1 = 0.5978	736.9	0.923
323.15 K, x1 = 0.7012	733.15	0.902
323.15 K, x1 = 0.7671	731.4	0.9
323.15 K, x1 = 0.8773	728.77	0.899
323.15 K, x1 = 1	727	0.936
328.15 K, x1 = 0.1045	767.14	1.121
328.15 K, x1 = 0.2008	756.86	1.02
328.15 K, x1 = 0.3002	748.75	0.949
328.15 K, x1 = 0.3985	742.38	0.906
328.15 K, x1 = 0.4995	737.08	0.871
328.15 K, x1 = 0.5978	732.96	0.856
328.15 K, x1 = 0.7012	729.25	0.84
328.15 K, x1 = 0.7671	727.53	0.839
328.15 K, x1 = 0.8773	724.96	0.839
328.15 K, x1 = 1	723.33	0.877
333.15 K, x1 = 0.1045	763.01	1.017
333.15 K, x1 = 0.2008	752.73	0.931
333.15 K, x1 = 0.3002	744.64	0.871
333.15 K, x1 = 0.3985	738.31	0.837
333.15 K, x1 = 0.4995	733.06	0.808
333.15 K, x1 = 0.5978	728.98	0.797
333.15 K, x1 = 0.7012	725.32	0.784
333.15 K, x1 = 0.7671	723.64	0.785
333.15 K, x1 = 0.8773	721.13	0.785
333.15 K, x1 = 1	719.65	0.823
